Earlier results in patent US8512311B2, “Augmentation of intraluminal microvessel formation to facilitate guide wire crossing in chronic total occlusions” (priority 2004, dated 2013).

System: venous thrombi
Settings: injection into venous thrombi, rat model, compared to controls

vascular endothelial growth factor [VEGF protein]
increase in thrombus recanalization: two-fold
